Assay results from patent publication US20230257396A1, “MACROCYCLES AND THEIR USE” (BLOSSOMHILL THERAPEUTICS, INC., priority 2020, published 2023).
Numbering of substitutions follows the chain as printed.

Legend:
Test in all cases: KINOMEscan kinase binding assay (Eurofins/DiscoveRx), % Ctrl
kinases [1] = target: T1, kinases (Homo sapiens, UniProt P00519, F317L)
T1 construct: purchased Eurofins/DiscoveRx; host or cells: E. coli BL21-derived host (T7 phage display) for most kinases; HEK-293 for the rest
In short: (§1)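 Competition binding: DNA- or phage-tagged kinases (T7 phage in E. coli BL21, or HEK-293-expressed) with immobilized biotinylated ligand beads and test compound, 1 h at room temperature. Bead-bound kinase eluted and quantified by qPCR; % Ctrl = (compound − positive control)/(negative control − positive control) ×100 at a single compound concentration.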

kinases [2] = target: T2, kinases (Homo sapiens, UniProt P00533, T790M)
T2 construct: purchased Eurofins/DiscoveRx; host or cells: E. coli BL21-derived host (T7 phage display) for most kinases; HEK-293 for the rest
In short: as §1

kinases [3] = target: T3, kinases (Homo sapiens, UniProt P07949, V804L)
T3 construct: purchased Eurofins/DiscoveRx; host or cells: E. coli BL21-derived host (T7 phage display) for most kinases; HEK-293 for the rest
In short: as §1

kinases [4] = target: T4, kinases (Homo sapiens, UniProt P17948)
T4 construct: purchased Eurofins/DiscoveRx; host or cells: E. coli BL21-derived host (T7 phage display) for most kinases; HEK-293 for the rest
In short: as §1

kinases [5] = target: T5, kinases (Homo sapiens, UniProt P36888, D835H)
T5 construct: purchased Eurofins/DiscoveRx; host or cells: E. coli BL21-derived host (T7 phage display) for most kinases; HEK-293 for the rest
T5 sequence (P36888 27-993 D835H): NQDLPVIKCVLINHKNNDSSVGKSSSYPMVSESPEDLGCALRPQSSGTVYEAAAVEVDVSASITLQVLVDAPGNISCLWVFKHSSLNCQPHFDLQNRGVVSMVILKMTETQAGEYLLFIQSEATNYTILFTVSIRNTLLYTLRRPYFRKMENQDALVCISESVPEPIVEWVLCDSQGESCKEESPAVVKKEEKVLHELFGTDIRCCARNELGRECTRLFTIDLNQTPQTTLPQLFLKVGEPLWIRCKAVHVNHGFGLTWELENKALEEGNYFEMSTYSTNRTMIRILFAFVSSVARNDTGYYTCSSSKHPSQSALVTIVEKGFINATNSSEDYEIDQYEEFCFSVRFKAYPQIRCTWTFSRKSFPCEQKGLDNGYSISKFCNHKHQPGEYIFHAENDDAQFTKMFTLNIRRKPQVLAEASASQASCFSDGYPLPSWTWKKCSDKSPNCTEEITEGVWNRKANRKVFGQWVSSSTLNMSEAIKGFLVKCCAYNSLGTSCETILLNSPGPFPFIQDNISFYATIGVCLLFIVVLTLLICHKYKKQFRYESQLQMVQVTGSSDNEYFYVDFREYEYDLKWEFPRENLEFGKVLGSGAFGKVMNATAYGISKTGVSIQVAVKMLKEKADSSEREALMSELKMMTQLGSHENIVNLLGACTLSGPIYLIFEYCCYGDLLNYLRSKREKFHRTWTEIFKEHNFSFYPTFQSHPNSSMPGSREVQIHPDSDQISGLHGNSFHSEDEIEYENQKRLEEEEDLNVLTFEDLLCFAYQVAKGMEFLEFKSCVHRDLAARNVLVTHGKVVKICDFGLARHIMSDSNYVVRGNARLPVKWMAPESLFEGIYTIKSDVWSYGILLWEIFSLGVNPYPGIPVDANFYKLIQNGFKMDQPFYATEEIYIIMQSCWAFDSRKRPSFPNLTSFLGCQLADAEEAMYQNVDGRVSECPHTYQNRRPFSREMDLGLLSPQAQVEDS
In short: as §1

kinases [6] = target: T6, kinases (Homo sapiens, UniProt P36888, R834Q)
T6 construct: purchased Eurofins/DiscoveRx; host or cells: E. coli BL21-derived host (T7 phage display) for most kinases; HEK-293 for the rest
T6 sequence (P36888 27-993 R834Q): T5 sequence (P36888 27-993 D835H) with R808Q, H809D
In short: as §1

[7] = 1 μM; ABL1(F317L)-nonphosphorylated
[8] = 1 μM; ABL1(F317L)-phosphorylated
[9] = 1 μM; target ABL1(F317L)-nonphosphorylated
[10] = 1 μM; target ABL1(F317L)-phosphorylated

T4 sequence (P17948 27-1338): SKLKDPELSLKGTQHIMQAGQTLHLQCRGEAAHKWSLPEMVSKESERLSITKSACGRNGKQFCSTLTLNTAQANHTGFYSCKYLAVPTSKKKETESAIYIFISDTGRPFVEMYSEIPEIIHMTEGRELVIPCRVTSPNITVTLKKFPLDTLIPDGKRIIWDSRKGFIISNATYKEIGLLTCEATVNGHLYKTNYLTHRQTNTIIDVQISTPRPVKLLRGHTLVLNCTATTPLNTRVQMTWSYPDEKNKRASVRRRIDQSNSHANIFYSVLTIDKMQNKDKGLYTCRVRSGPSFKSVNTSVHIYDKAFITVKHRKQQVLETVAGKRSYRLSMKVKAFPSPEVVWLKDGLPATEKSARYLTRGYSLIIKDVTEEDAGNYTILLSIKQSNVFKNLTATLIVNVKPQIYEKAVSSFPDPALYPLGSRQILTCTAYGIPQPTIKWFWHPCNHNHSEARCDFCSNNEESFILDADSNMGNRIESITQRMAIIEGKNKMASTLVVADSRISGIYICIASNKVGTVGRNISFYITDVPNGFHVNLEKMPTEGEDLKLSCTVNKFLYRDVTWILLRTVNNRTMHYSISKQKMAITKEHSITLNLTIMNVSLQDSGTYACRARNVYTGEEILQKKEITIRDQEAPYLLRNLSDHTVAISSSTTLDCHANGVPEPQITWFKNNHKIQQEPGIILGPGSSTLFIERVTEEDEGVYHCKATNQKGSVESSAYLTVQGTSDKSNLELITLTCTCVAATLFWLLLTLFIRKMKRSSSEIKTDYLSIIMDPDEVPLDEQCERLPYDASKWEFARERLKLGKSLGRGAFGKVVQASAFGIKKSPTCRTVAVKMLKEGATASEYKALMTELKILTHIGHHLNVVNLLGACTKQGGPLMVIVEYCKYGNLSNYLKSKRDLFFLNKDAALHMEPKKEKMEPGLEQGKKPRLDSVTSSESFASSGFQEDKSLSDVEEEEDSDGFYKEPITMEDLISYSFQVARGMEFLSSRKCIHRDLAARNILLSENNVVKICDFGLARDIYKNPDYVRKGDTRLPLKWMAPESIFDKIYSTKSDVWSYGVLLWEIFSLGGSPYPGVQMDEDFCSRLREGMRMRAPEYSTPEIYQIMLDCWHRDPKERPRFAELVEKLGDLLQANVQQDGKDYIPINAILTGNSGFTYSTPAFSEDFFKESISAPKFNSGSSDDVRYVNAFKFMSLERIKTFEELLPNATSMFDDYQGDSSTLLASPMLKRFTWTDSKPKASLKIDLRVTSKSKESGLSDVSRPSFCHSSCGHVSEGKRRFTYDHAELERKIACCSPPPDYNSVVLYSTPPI
T1 sequence (P00519 whole entry F317L): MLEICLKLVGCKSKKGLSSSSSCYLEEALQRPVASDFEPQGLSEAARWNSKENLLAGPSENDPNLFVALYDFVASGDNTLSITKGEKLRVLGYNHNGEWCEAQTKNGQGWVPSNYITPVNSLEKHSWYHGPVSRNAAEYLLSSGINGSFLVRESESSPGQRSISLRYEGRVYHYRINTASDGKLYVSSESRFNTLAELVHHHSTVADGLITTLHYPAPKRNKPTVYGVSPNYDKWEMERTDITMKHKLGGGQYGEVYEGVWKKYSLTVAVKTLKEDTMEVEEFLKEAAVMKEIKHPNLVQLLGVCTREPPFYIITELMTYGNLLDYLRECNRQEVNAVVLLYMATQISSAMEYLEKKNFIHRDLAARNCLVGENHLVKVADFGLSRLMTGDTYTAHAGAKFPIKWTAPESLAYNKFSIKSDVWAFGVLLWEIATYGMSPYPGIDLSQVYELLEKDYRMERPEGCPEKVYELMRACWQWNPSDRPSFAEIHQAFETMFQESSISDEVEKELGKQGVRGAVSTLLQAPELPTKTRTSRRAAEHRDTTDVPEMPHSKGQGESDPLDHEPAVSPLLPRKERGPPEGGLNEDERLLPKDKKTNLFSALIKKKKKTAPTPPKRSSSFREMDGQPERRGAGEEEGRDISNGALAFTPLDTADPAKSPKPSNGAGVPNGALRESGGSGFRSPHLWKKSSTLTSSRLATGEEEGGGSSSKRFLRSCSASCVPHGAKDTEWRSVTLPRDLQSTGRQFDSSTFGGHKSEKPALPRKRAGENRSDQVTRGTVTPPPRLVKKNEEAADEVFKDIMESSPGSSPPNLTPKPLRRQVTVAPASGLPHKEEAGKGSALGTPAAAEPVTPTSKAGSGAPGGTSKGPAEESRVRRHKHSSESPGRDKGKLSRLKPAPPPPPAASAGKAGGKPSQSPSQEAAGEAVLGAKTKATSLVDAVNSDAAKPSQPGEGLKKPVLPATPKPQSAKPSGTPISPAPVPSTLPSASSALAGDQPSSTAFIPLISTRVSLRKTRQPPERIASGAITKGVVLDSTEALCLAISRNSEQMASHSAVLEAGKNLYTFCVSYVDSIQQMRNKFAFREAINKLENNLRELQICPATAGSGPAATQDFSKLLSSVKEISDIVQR
T3 sequence (P07949 29-1114 V804L): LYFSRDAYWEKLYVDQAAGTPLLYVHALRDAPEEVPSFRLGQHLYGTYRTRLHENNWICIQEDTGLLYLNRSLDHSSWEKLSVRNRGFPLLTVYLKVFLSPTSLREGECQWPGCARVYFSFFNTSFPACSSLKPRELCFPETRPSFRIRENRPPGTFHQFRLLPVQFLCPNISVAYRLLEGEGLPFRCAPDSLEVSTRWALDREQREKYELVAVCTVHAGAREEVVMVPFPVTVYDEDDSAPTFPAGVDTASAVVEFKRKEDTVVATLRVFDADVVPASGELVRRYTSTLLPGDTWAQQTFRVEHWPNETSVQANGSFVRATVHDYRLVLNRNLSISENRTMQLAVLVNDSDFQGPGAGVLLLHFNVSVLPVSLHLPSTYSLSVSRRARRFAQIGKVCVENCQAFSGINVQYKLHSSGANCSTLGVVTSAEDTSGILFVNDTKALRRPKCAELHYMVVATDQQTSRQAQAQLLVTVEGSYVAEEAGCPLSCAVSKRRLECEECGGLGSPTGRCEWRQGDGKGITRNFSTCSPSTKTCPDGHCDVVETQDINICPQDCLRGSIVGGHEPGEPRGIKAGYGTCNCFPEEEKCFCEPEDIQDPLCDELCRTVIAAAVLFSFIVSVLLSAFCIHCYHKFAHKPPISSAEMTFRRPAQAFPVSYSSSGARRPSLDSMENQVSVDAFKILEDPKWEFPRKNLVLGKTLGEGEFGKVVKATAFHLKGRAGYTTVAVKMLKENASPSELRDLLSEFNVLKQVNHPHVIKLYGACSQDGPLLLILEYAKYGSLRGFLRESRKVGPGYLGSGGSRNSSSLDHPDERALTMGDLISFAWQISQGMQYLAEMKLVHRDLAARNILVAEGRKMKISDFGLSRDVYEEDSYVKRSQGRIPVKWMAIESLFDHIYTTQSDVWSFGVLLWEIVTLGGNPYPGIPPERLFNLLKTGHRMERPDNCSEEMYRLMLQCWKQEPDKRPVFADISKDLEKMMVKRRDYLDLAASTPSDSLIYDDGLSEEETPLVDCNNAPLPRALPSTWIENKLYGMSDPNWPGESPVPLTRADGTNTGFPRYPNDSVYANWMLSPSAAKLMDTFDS

SMILES | % Ctrl, ABL1(F317L)-nonphosphorylated (kinases [1]; [7]) [% Ctrl] | % Ctrl, ABL1(F317L)-phosphorylated (kinases [1]; [8]) [% Ctrl] | % Ctrl, EGFR(T790M) (kinases [2]; 1 μM; EGFR(T790M)) [% Ctrl] | % Ctrl, RET(V804L) (kinases [3]; 1 μM; RET(V804L)) [% Ctrl] | % Ctrl, FLT1 (kinases [4]; 1 μM; FLT1) [% Ctrl] | % Ctrl, FLT3(D835H) (kinases [5]; 1 μM; FLT3(D835H)) [% Ctrl] | % Ctrl, FLT3(R834Q) (kinases [6]; 1 μM; FLT3(R834Q)) [% Ctrl] | also measured
Cc1cc2c([nH]1)/C=C1\C(=O)Nc3ccc(cc31)-c1cnn(C)c1COCCN(C)C2=O [Ex. 124, [3a(4)Z]-6,9,14-trimethyl-10,11,13,14-tetrahydro-2H-1,17-(ethanediylidene)pyrazolo[4,3-m]dipyrrolo[3,2-f:3′,4′-i][1,4]oxazacyclopentadecine-3,8(5H,9H)-dione] | 0 | 0.2 | 8.5 | 0 | 13 | 0.05 | 0 | 
CN1CCOc2cc3c(cc2Cl)NC(=O)/C3=C\c2[nH]ccc2C(=O)N(C)CC1 [Ex. 164, [16a(17)Z]-19-chloro-2,5,8-trimethyl-5,6,7,8,9,10-hexahydro-12,14-(ethanediylidene)dipyrrolo[3,2-i:3′,4′-l][1,4,7]oxadiazacyclopentadecine-4,16(1H,15H)-dione] |  |  |  |  |  |  |  | % Ctrl, ABL1(F317L)-nonphosphorylated (kinases [1]; [9]): 1.6 % Ctrl; % Ctrl, ABL1(F317L)-phosphorylated (kinases [1]; [10]): 1.3 % Ctrl; % Ctrl, EGFR(T790M) (kinases [2]; 1 μM; target EGFR(T790M)): 97 % Ctrl; % Ctrl, RET(V804L) (kinases [3]; 1 μM; target RET(V804L)): 1.2 % Ctrl; % Ctrl, FLT1 (kinases [4]; 1 μM; target FLT1): 13 % Ctrl; % Ctrl, FLT3(D835H) (kinases [5]; 1 μM; target FLT3(D835H)): 0.3 % Ctrl; % Ctrl, FLT3(R834Q) (kinases [6]; 1 μM; target FLT3(R834Q)): 13 % Ctrl
Cc1cc2c([nH]1)/C=C1\C(=O)Nc3cc(Cl)c(cc31)SCCOCCN(C)C2=O [Ex. 169, [16a(17)Z]-19-chloro-5-methyl-6,7,9,10-tetrahydro-1H-12,14-(ethanediylidene)dipyrrolo[3,4-g:2′,3′-j][1,4,13]oxathiazacyclopentadecine-4,16(5H,15H)-dione] |  |  |  |  |  |  |  | % Ctrl, ABL1(F317L)-nonphosphorylated (kinases [1]; [9]): 0.6 % Ctrl; % Ctrl, ABL1(F317L)-phosphorylated (kinases [1]; [10]): 0.1 % Ctrl; % Ctrl, EGFR(T790M) (kinases [2]; 1 μM; target EGFR(T790M)): 69 % Ctrl; % Ctrl, RET(V804L) (kinases [3]; 1 μM; target RET(V804L)): 0.2 % Ctrl; % Ctrl, FLT1 (kinases [4]; 1 μM; target FLT1): 12 % Ctrl; % Ctrl, FLT3(D835H) (kinases [5]; 1 μM; target FLT3(D835H)): 0.1 % Ctrl; % Ctrl, FLT3(R834Q) (kinases [6]; 1 μM; target FLT3(R834Q)): 5.9 % Ctrl
Cc1cc2c([nH]1)/C=C1\C(=O)Nc3ccc(cc31)-c1ccnn1CCOCCNC2=O [Ex.39, [19a(20)Z]-2-methyl-6,7,9,10-tetrahydro-1H-15,17-(ethanediylidene)pyrazolo[1,5-d]dipyrrolo[3,4-h:2′,3′-k][1,4,14]oxadiazacyclohexadecine-4,19(5H,18H)-dione] | 98 | 60 | 99 | 87 | 95 | 85 | 93 | 
Cc1cc2c([nH]1)/C=C1\C(=O)Nc3cnc(cc31)-c1cn[nH]c1CNCCN(C)C2=O [Ex. 55, [3a(4)Z]-6,9-dimethyl-9,10,11,12,13,14-hexahydro-17,1-(azenometheno)pyrazolo[4,3-m]dipyrrolo[3,2-f:3′,4′-i][1,4]diazacyclopentadecine-3,8(2,5H)-dione] |  |  |  |  |  |  |  | % Ctrl, ABL1(F317L)-nonphosphorylated (kinases [1]; target ABL1(F317L)-nonphosphorylated; 1 μM): 24 % Ctrl; % Ctrl, ABL1(F317L)-phosphorylated (kinases [1]; target ABL1(F317L)-phosphorylated; 1 μM): 10 % Ctrl; % Ctrl, EGFR(T790M) (kinases [2]; target EGFR(T790M); 1 μM): 70 % Ctrl; % Ctrl, RET(V804L) (kinases [3]; target RET(V804L); 1 μM): 0.3 % Ctrl; % Ctrl, FLT1 (kinases [4]; target FLT1; 1 μM): 62 % Ctrl; % Ctrl, FLT3(D835H) (kinases [5]; target FLT3(D835H); 1 μM): 2.7 % Ctrl; % Ctrl, FLT3(R834Q) (kinases [6]; target FLT3(R834Q); 1 μM): 25 % Ctrl
Cc1cc2c([nH]1)/C=C1\C(=O)Nc3cc(Cl)c(cc31)OCCO[C@@H](C(=O)N[C@@H]1CCNC1)CN(C)C2=O [Ex. 136, [7R,16a(17)Z]-19-chloro-2,5-dimethyl-4,16-dioxo-N-[(3R)-pyrrolidin-3-yl]-4,5,6,7,9,10,15,16-octahydro-1H-12,14-(ethanediylidene)dipyrrolo[3,2-i:3′,4′-l][1,4,7]dioxazacyclopentadecine-7-carboxamide] | 59 | 44 | 96 | 50 | 97 | 32 | 50 | 
Cc1cc2c([nH]1)/C=C1\C(=O)Nc3cc(Cl)c(cc31)OCCOCCN(C)C2=O [Ex. 131, [16a(17)Z]-19-chloro-2,5-dimethyl-6,7,9,10-tetrahydro-1H-12,14-(ethanediylidene)dipyrrolo[3,2-i:3′,4′-l][1,4,7]dioxazacyclopentadecine-4,16(5H,15H)-dione] | 0 | 1.3 | 61 | 0 | 4 | 0 | 6.6 | 
Cc1cc2c([nH]1)/C=C1\C(=O)Nc3cnc(cc31)-c1cnn(C)c1COCCNC2=O [Ex.123, [3a(4)Z]-6,14-dimethyl-10,11,13,14-tetrahydro-2H-17,1-(azenometheno)pyrazolo[4,3-m]dipyrrolo[3,2-f:3′,4′-i][1,4]oxazacyclopentadecine-3,8(5H,9H)-dione] | 100 | 100 | 100 | 89 | 96 | 88 | 100 | 
CNC(=O)[C@H]1CN(C)C(=O)c2cc(C)[nH]c2/C=C2\C(=O)Nc3cc(Cl)c(cc32)OCCO1 [Ex. 135, [7R,16a(17)Z]-19-chloro-N,2,5-trimethyl-4,16-dioxo-4,5,6,7,9,10,15,16-octahydro-1H-12,14-(ethanediylidene)dipyrrolo[3,2-i:3′,4′-l][1,4,7]dioxazacyclopentadecine-7-carboxamide] | 78 | 64 | 94 | 60 | 85 | 37 | 63 | 
